Data reported in the supplement of paper PMC10307832.

Experiments:
Experiment in all cases: relative viability (nuclei count vs DMSO), 5 days (fraction); higher = more cells survive
[1] = compound: C1=CC2=C(C=CC(=C2)C=C3C(=O)NC(=NCC4=CC=CS4)S3)N=C1 [RO-3306] + Cc1nc(NC(=O)N2CCC[C@H]2C(N)=O)sc1-c1ccnc(C(C)(C)C(F)(F)F)c1 [Alpelisib] (partner 2 µM)
How it was run: (§1)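 Values are medians from duplicate plates. Each reflects relative viability, defined as the nuclei count of treated wells over that of vehicle wells. Lung cancer cell lines in 1536-well plates were pin-tool dosed one day after seeding with one drug alone or with a fixed anchor-drug dose plus five library-drug doses (not always all listed) in √10 steps, then fixed, stained and imaged at 4× after 5 days.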

[2] = compound: C1=CC2=C(C=CC(=C2)C=C3C(=O)NC(=NCC4=CC=CS4)S3)N=C1 [RO-3306] + CS(=O)(=O)N1CCN(Cc2cc3nc(-c4cccc5[nH]ncc45)nc(N4CCOCC4)c3s2)CC1 [Pictilisib] (partner 1 µM)
How it was run: as §1

[3] = compound: C1=CC2=C(C=CC(=C2)C=C3C(=O)NC(=NCC4=CC=CS4)S3)N=C1 [RO-3306] + CCNC(=O)c1noc(-c2cc(C(C)C)c(O)cc2O)c1-c1ccc(CN2CCOCC2)cc1 [Luminespib] (partner 0.01 µM)
How it was run: as §1

[4] = compound: O=S(=O)(c1ccccc1)N(CC(F)(F)F)c1ccc(C(O)(C(F)(F)F)C(F)(F)F)cc1 + CC(C)C[C@H](NC(=O)[C@H](Cc1ccccc1)NC(=O)c1cnccn1)B(O)O [Bortezomib] (partner 0.002 µM)
How it was run: as §1

## A-427
[1]; first compound 0.01 µM
  relative viability: 1.13
[1]; first compound 0.03162 µM
  relative viability: 0.575
[1]; first compound 0.1 µM
  relative viability: 1
[1]; first compound 0.3162 µM
  relative viability: 1.06
[1]; first compound 1 µM
  relative viability: 1.02
[2]; first compound 0.01 µM
  relative viability: 0.707
[2]; first compound 0.03162 µM
  relative viability: 0.735
[2]; first compound 0.1 µM
  relative viability: 0.638
[2]; first compound 0.3162 µM
  relative viability: 0.781
[2]; first compound 1 µM
  relative viability: 0.483
[3]; first compound 0.01 µM
  relative viability: 0.94
[3]; first compound 0.03162 µM
  relative viability: 0.867
[3]; first compound 0.1 µM
  relative viability: 0.928
[3]; first compound 0.3162 µM
  relative viability: 0.884
[3]; first compound 1 µM
  relative viability: 1
[4]; first compound 0.8 µM
  relative viability: 0.973
[4]; first compound 2.53 µM
  relative viability: 0.916
[4]; first compound 8 µM
  relative viability: 1.07

## NCI-H441
[1]; first compound 0.01 µM
  relative viability: 1
[1]; first compound 0.03162 µM
  relative viability: 0.556
[1]; first compound 0.1 µM
  relative viability: 0.563
[1]; first compound 0.3162 µM
  relative viability: 0.657
[1]; first compound 1 µM
  relative viability: 0.66
[2]; first compound 0.01 µM
  relative viability: 0.491
[2]; first compound 0.03162 µM
  relative viability: 0.332
[2]; first compound 0.1 µM
  relative viability: 0.387
[2]; first compound 0.3162 µM
  relative viability: 0.607
[2]; first compound 1 µM
  relative viability: 0.451
[3]; first compound 0.01 µM
  relative viability: 0.248
[3]; first compound 0.03162 µM
  relative viability: 0.317
[3]; first compound 0.1 µM
  relative viability: 0.279
[3]; first compound 0.3162 µM
  relative viability: 0.313
[3]; first compound 1 µM
  relative viability: 0.315
[4]; first compound 0.8 µM
  relative viability: 0.737
[4]; first compound 2.53 µM
  relative viability: 0.479
[4]; first compound 8 µM
  relative viability: 0.597

## NCI-H1993
[1]; first compound 0.03162 µM
  relative viability: 0.657
[1]; first compound 0.1 µM
  relative viability: 0.712
[1]; first compound 0.3162 µM
  relative viability: 0.589
[1]; first compound 1 µM
  relative viability: 0.666
[2]; first compound 0.03162 µM
  relative viability: 0.956
[2]; first compound 0.1 µM
  relative viability: 0.686
[2]; first compound 0.3162 µM
  relative viability: 0.743
[2]; first compound 1 µM
  relative viability: 0.897
[3]; first compound 0.01 µM
  relative viability: 0.792
[3]; first compound 0.03162 µM
  relative viability: 0.697
[3]; first compound 0.1 µM
  relative viability: 0.913
[3]; first compound 0.3162 µM
  relative viability: 0.799
[3]; first compound 1 µM
  relative viability: 0.746
[4]; first compound 0.8 µM
  relative viability: 1.12
[4]; first compound 2.53 µM
  relative viability: 0.824
[4]; first compound 8 µM
  relative viability: 1.03

## NCI-H1975
[1]; first compound 0.01 µM
  relative viability: 0.882
[1]; first compound 0.03162 µM
  relative viability: 0.507
[1]; first compound 0.1 µM
  relative viability: 0.615
[1]; first compound 0.3162 µM
  relative viability: 0.675
[1]; first compound 1 µM
  relative viability: 0.67
[2]; first compound 0.01 µM
  relative viability: 0.321
[2]; first compound 0.03162 µM
  relative viability: 0.259
[2]; first compound 0.1 µM
  relative viability: 0.261
[2]; first compound 0.3162 µM
  relative viability: 0.324
[2]; first compound 1 µM
  relative viability: 0.211
[3]; first compound 0.01 µM
  relative viability: 0.443
[3]; first compound 0.03162 µM
  relative viability: 0.142
[3]; first compound 0.1 µM
  relative viability: 0.242
[3]; first compound 0.3162 µM
  relative viability: 0.175
[3]; first compound 1 µM
  relative viability: 0.294
[4]; first compound 0.8 µM
  relative viability: 0.327
[4]; first compound 2.53 µM
  relative viability: 0.415
[4]; first compound 8 µM
  relative viability: 0.299
